Reference: patent publication US20120134974A1, “METHODS FOR REMOVING PLASMA” (BIOVEC TRANSFUSION, LLC, priority 2010, published 2012)

Tests used:
platelets = assay: thromboelastography (TEG) of platelet concentrate; type: cell-based; conditions: 2.4 mg Argatroban in 350 ml of platelets; straight line on the thromboelastogram
Method: In one experiment, platelet concentrates obtained by the buffy coat method were used for the study. Integrilin (Eptifibatide), a GPIIb/IIIa inhibitor, and Argabotran, a synthetic thrombin inhibitor, were added to platelet units at three times the therapeutic concentrations (i.e., 48 micrograms of Integrilin and 2.4 mg of Argatroban in 350 ml of platelets). Removal of the inhibitors was initiated by diafiltration. 15 ml of the platelet concentrate was diafiltered against 60 ml of a solution containing 20% fresh frozen plasma in a commercially used platelet storage solution (T-Sol). The samples were stored overnight and platelet functionality was measured on Day 2, by Thromboelastography (TEG) and using standard agonists such as TRAP and collagen.
In another experiment, Integrilin and Argabotran were added to platelet units at three times the therapeutic loading concentrations (i.e., 48 micrograms for Integrilin and 2.4 mg for Argatroban in 350 ml of platelets). Prior to the addition of the inhibitors, baseline data of platelet functionality was obtained. These baseline data included thromboelastography, which assesses overall platelet function and clot strength, as well as the TRAP test and the collagen test, which are additional markers of platelet functionality. […]

factor Xa = factor Xa (Homo sapiens, UniProt P00742); conditions: cited from earlier work
Sequence of factor Xa (P00742 235-488 limits assumed): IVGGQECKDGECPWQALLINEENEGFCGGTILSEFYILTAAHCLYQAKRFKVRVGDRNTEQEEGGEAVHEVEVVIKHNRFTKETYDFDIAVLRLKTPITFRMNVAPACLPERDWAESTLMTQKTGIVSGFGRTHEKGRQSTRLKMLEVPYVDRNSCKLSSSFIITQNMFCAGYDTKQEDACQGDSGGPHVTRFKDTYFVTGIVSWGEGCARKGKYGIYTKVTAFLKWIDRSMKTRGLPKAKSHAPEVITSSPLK
Sequence of factor Xa (P00742 41-179 partner limits assumed): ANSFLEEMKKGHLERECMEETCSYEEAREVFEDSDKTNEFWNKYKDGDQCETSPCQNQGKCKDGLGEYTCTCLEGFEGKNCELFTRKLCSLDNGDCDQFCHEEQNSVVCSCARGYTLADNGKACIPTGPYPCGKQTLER

PT and αPTT = conditions: more sensitive to the αPTT; cited from earlier work

For `CC1CNc2c(cccc2S(=O)(=O)N[C@@H](CCCNC(=N)N)C(=O)N2CC[C@@H](C)C[C@@H]2C(=O)O)C1` (stereo partly shown) [Argatroban], the “effect on activation of platelets on the thromboelastogram” value (platelets) was “completely blocks the activation of platelets”.
In the case of `CC(=N)N1CC[C@H](Oc2ccc([C@H](Cc3ccc4ccc(C(=N)N)cc4c3)C(=O)O)cc2)C1` [DX-9065a], the “mode of factor Xa inhibition” value (factor Xa) is given as “competitive manner”.
For `COc1ccc2ccc(S(=O)(=O)N(C)[C@H]3CCN(Cc4csc(C(=N)N)c4)C3=O)cc2c1` [RPR-120844], the “mode of factor Xa inhibition” value (factor Xa) is given as “fast binding, reversible and competitive inhibitor” and the “effect on PT and αPTT” value (PT and αPTT) is given as “prolongs the PT and αPTT in a concentration-dependent manner”.
